These results are taken from patent publication US12391946B2, “Use of a Janus kinase inhibitor and a telomerase inhibitor for the treatment of myeloproliferative neoplasms” (priority 2019, dated 2025).

Like-named read-outs stand apart in the source and are kept apart here.

What all share (format): cell-based, human
One assay concerns CB CD34+ cells. Nature of the assay: In vitro treatment of CB CD34+ cells with various doses of Rux. The conditions noted are these: various doses of Rux (50-500 nM). The procedure: (§1) Treatment of MF and normal CD34^+ cells with doses of Rux and Imetelstat alone and in combination. […] For simultaneous combination treatment, CD34^+ cells were exposed to Rux and imetelstat for 3 days and were washed. Cells were then exposed to imetelstat again for additional 4 days or 11 days. For sequential combination treatment, CD34^+ cells were incubated in the presence of Rux alone for 3 days, followed by imetelstat alone for 7 or 14 days. For the three treatment strategies containing imetelstat, cells were dosed in total three times with imetelstat. Three days after Rux alone treatment and 7 or 14 days after each treatment with imetelstat, cells were enumerated and stained with CD34, a lineage cocktail, and CD15 mAbs and analyzed flow cytometrically. The absolute numbers of Lin^− CD34^+ (phenotypically defined HSC/HPC) and CD15^+CD34^− (myeloid) cells generated in the cultures were calculated by multiplying the total viable cell numbers by the percentage of CD34^+Lin^− and CD15^+CD34^− cells. In addition, parallel cultures to which MM or vehicle alone was added were performed.

The subject of assay [1] is MF splenic CD34+ cells. Put plainly: In vitro treatment of MF splenic CD34+ cells with Rux and imetelstat alone and in combination (flow cytometry, HPC assays). The note with it: Rux alone 50 nM 3 days. As for the experimental part:
as §1, with “In addition, parallel cultures to which MM or vehicle alone was added were performed.” left out
HPC assays. A fraction of cells harvested from the above cultures were also analyzed in methylcellulose to which a cytokine cocktail was added according to the manufacturer's instructions (StemCell Technologies). […] Individual CFU-GM colonies (20-38 colonies/treatment group/patient) were plucked and analyzed for the presence of JAK2V617F using a nested allele-specific PCR. […]

In assay [2] the test system is MF splenic CD34+ cells. Put plainly: In vitro treatment of MF splenic CD34+ cells with various doses of Rux. The note with it: for IC50: Homo sapiens, concentration of Rux achieving 50% inhibition. The procedure: as §1

As to `N#CC[C@H](C1CCCC1)n1cc(-c2ncnc3[nH]ccc23)cn1` [Rux, (3R)-3-Cyclopentyl-3-[4-(7H-pyrrolo[2,3-d]pyrimidin-4-yl)pyrazol-1-yl]propanenitrile], in the assay on CB CD34+ cells, the “number of CB CD34+ cells” value is “decreased only to a limited degree”. For the same molecule, the “number of mature myeloid cells generated in cultures of splenic MF CD34+ cells” value in the assay on MF splenic CD34+ cells [1] (P=0.001) was “reduced”. Moreover, the “numbers of assayable HPCs (CFU-GM+BFU-E+CFU-GEMM) generated in cultures of splenic MF CD34+ cells” value in the assay with MF splenic CD34+ cells [1] (P=9.69E-06) is listed as “reduced”. Further, the IC50 in the assay with MF splenic CD34+ cells [2] (CD34+ cell, read-out: 50% inhibition of MF CD34+ cell proliferation) came out at 150 nM; in the assay with MF splenic CD34+ cells [2] (CFU-GM, MF CD34+ cells, read-out: 50% inhibition of CFU-GM formation), 150 nM. In the assay with MF splenic CD34+ cells [2] (various doses of Rux (50-500 nM)), the “absolute number of MF splenic CD34+ cells” value is recorded as “decreased in a dose dependent fashion”.
